Measurements as given in US20240239784A1, “INDOLE COMPOUNDS AND METHODS OF USE” (GENZYME CORPORATION, priority 2021, published 2024).

What follows are compounds tested on NBD1 (assay: Aggregation analysis of NBD1 thermal stability by differential static light scattering (DSLS)). Conditions: compound at 100 μM; ΔTagg versus DMSO control.
Type: binding, Human
Method: Purified recombinant NBD1 was produced using previously described methods (A. Schmidt, J. L. Mendoza, P. J. Thomas (2011) Biochemical and Biophysical Approaches to Probe CFTR Structure (365-376) M. D. Amaral, K. Kunzelmann (eds.), Cysic Fibrosis, Methods in Molecular Biology 741, Springer Science+Business Media). The effect of test compounds on thermal stability of NBD1 was evaluated by differential static light scattering (DSLS) using the Harbinger Stargazer-384 instrument (Epiphyte Three, Toronto, Canada). Test compounds were dissolved and diluted to desired concentrations in 100% DMSO. The compounds or DMSO controls (100 nL) were stamped into wells of a […] low volume optical plate (Corning Inc., Corning, NY) using the Echo 555 acoustic liquid handler (Labcyte Inc., San Jose, CA).
NBD1 protein was diluted to 0.2 mg/ml in S200 buffer (50 mM Tris-HCl, 150 mM NaCl, 5 mM MgCl2, 2 mM ATP, 2 mM DTT, pH7.6) containing 1% glycerol. 10 uL of protein solution was aliquoted into the 384-well plate harboring the test compounds and 10 uL mineral oil was overlayed onto the protein solution, using the epMotion robotic liquid handler (Eppendorf North America, Hauppauge, NY). After placing into the Stargazer instrument, the plate was heated at 1° C. per minute to 70° C. Images were captured from 25° C. to 70° C. every 0.5° C. At the end of the experiment run, instrument software integrated image files and analyzed data automatically. A […] regression curve was generated for each well, representing the increase in light scattering over time. A temperature of aggregation (Tagg) was calculated based on the inflection point of the curve. To better compare data across experiments the average Tagg for DMSO control wells was calculated and subtracted from values for wells containing compounds to obtain a “ΔTagg” value. These ΔTagg values reflect stabilizing efficacy of the compounds.

Question: `CS(=O)(=O)NC(=O)CCc1c(Oc2cccc(-c3nnc(Cc4ccccc4)[nH]3)c2)ccc2[nH]ccc12` [Example 59, 3-(5-(3-(5-Benzyl-4H-1,2,4-triazol-3-yl)phenoxy)-1H-indol-4-yl)-N-(methylsulfonyl)propanamide] was tested. Which “DSLS NBD1/3D Human Stability delta-T (° C.) @ 100 (μM)” value (shortened to “DSLS NBD1/3D Human Stability delta-T”) did it give?
Answer: B (4-8° C.)

Question: With `CC(O)(c1ccccc1)c1cnc(-c2cccc(Oc3c(F)cc4[nH]ccc4c3C=C3SC(=O)NC3=O)c2)[nH]1` (stereo not drawn) [Example 3, 5-((6-fluoro-5-(3-(5-(1-hydroxy-1-phenylethyl)-1H-imidazol-2-yl)phenoxy)-1H-indol-4-yl)methylene)thiazolidine-2,4-dione] as the compound, how does the “DSLS NBD1/3D Human Stability delta-T” value read?
Answer: A (T ≥8° C.)

Question: How did the “DSLS NBD1/3D Human Stability delta-T” value turn out when `O=S(=O)(c1ccccc1)c1cnc(-c2cccc(Oc3ccc4[nH]ccc4c3)c2)[nH]1` [Example 32, 5-(3-(5-(Phenylsulfonyl)-1H-imidazol-2-yl)phenoxy)-1H-indole] was run?
Answer: B (4-8° C.)

Question: How did the “DSLS NBD1/3D Human Stability delta-T” value turn out when `C[S+]([O-])c1c(Oc2cccc(-c3ncc(C(O)c4ccccc4)[nH]3)c2)ccc2[nH]ccc12` (stereo not drawn) [Example 55, (2-(3-((4-(Methylsulfinyl)-1H-indol-5-yl)oxy)phenyl)-1H-imidazol-5-yl)(phenyl)methanol] was run?
Answer: B (4-8° C.)

Question: `Cc1c(Oc2ccc(F)c(-c3nc(C(C)(CO)c4ccccc4)c[nH]3)c2)c(F)cc2[nH]ccc12` (stereo not drawn) [Example 77, 2-(2-(2-Fluoro-5-((6-fluoro-4-methyl-1H-indol-5-yl)oxy)phenyl)-1H-imidazol-4-yl)-2-phenylpropan-1-ol] was tested. Which “DSLS NBD1/3D Human Stability delta-T” value did it give?
Answer: B (4-8° C.)

Question: With `CC(C)(O)c1nc(-c2cc(Oc3c(F)cc4[nH]ccc4c3S(C)(=O)=O)ccc2F)[nH]c1Cc1ccccc1` [Example 79, 2-(5-Benzyl-2-(2-fluoro-5-((6-fluoro-4-(methylsulfonyl)-1H-indol-5-yl)oxy)phenyl)-1H-imidazol-4-yl)propan-2-ol] as the compound, how does the “DSLS NBD1/3D Human Stability delta-T” value read?
Answer: B (4-8° C.)

Question: With `CC(O)(c1ccccc1)c1cnc(-c2cccc(Oc3c(F)cc4[nH]ccc4c3C(N)=O)c2)[nH]1` (stereo not drawn) [Example 9, 6-Fluoro-5-(3-(5-(1-hydroxy-1-phenylethyl)-1H-imidazol-2-yl)phenoxy)-1H-indole-4-carboxamide] as the compound, how does the “DSLS NBD1/3D Human Stability delta-T” value read?
Answer: A (T ≥8° C.)

Question: Which “DSLS NBD1/3D Human Stability delta-T” value does the source give for `CC(O)(c1ccccc1)c1c[nH]c(-c2cc(Oc3c(F)cc4[nH]ccc4c3CC3SC(=O)NC3=O)ccc2F)n1` (stereo not drawn) [Example 1, 5-((6-Fluoro-5-(4-fluoro-3-(4-(1-hydroxy-1-phenylethyl)-1H-imidazol-2-yl)phenoxy)-1H-indol-4-yl)methyl)thiazolidine-2,4-dione] here?
Answer: A (T ≥8° C.)

Question: With `CC(O)(c1ccccc1)c1cnc(-c2cccc(Oc3c(F)cc4[nH]ccc4c3S(C)(=O)=O)c2)[nH]1` (stereo not drawn) [Example 5, 1-(2-(3-((6-Fluoro-4-(methylsulfonyl)-1H-indol-5-yl)oxy)phenyl)-1H-imidazol-5-yl)-1-phenylethan-1-ol] as the compound, how does the “DSLS NBD1/3D Human Stability delta-T” value read?
Answer: A (T ≥8° C.)

Question: Which “DSLS NBD1/3D Human Stability delta-T” value does the source give for `CC(C)(c1ccccc1)c1cnc(-c2cc(Oc3c(F)cc4[nH]ccc4c3CCC(=O)O)ccc2F)[nH]1` [Example 10, 3-(6-Fluoro-5-(4-fluoro-3-(5-(2-phenylpropan-2-yl)-1H-imidazol-2-yl)phenoxy)-1H-indol-4-yl)propanoic acid] here?
Answer: A (T ≥8° C.)

Question: With `O=C(Cc1c(Oc2cccc(-c3nnc(Cc4ccccc4)[nH]3)c2)ccc2[nH]ccc12)NS(=O)(=O)C(F)(F)F` [Example 60, 2-(5-(3-(5-Benzyl-4H-1,2,4-triazol-3-yl)phenoxy)-1H-indol-4-yl)-N-((trifluoromethyl)sulfonyl)acetamide] as the compound, how does the “DSLS NBD1/3D Human Stability delta-T” value read?
Answer: A (T ≥8° C.)

Question: For `CC(O)c1c(Oc2cccc(-c3nc(C(C)(O)c4ccccc4)c[nH]3)c2)c(F)cc2[nH]ccc12` (stereo not drawn) [Example 66, 1-(2-(3-((6-Fluoro-4-(1-hydroxyethyl)-1H-indol-5-yl)oxy)phenyl)-1H-imidazol-4-yl)-1-phenylethan-1-ol], which “DSLS NBD1/3D Human Stability delta-T” value is on record?
Answer: A (T ≥8° C.)

Question: Which “DSLS NBD1/3D Human Stability delta-T” value does the source give for `CC(O)(c1ccccc1)c1cnc(-c2cccc(Oc3ccc4[nH]ccc4c3S(C)(=O)=O)c2)[nH]1` (single isomer, unassigned) [Example 63A, 1-(2-(3-((4-(methylsulfonyl)-1H-indol-5-yl)oxy)phenyl)-1H-imidazol-5-yl)-1-phenylethan-1-ol] here?
Answer: A (T ≥8° C.)

Question: How did the “DSLS NBD1/3D Human Stability delta-T” value turn out when `O=C(O)c1c(Oc2cccc(-c3ncc(C(O)c4ccccc4)[nH]3)c2)ccc2[nH]ncc12` (stereo not drawn) [Example 27, 5-(3-(5-(Hydroxy(phenyl)methyl)-1H-imidazol-2-yl)phenoxy)-1H-indazole-4-carboxylic acid] was run?
Answer: C (≤4° C.)

Question: Which “DSLS NBD1/3D Human Stability delta-T” value does the source give for `Cc1c(Oc2ccc(F)c(-c3ncc(C(C)(CCC(=O)O)c4ccccc4)[nH]3)c2)c(F)cc2[nH]ccc12` (stereo not drawn) [Example 13, 4-(2-(2-Fluoro-5-((6-fluoro-4-methyl-1H-indol-5-yl)oxy)phenyl)-1H-imidazol-5-yl)-4-phenylpentanoic acid] here?
Answer: B (4-8° C.)

Question: With `CC(O)(c1ccccc1)c1cnc(-c2cccc(Oc3c(F)cc4[nH]ccc4c3CO)c2)[nH]1` (stereo not drawn) [Example 8, 1-(2-(3-((6-Fluoro-4-(hydroxymethyl)-1H-indol-5-yl)oxy)phenyl)-1H-imidazol-5-yl)-1-phenylethan-1-ol] as the compound, how does the “DSLS NBD1/3D Human Stability delta-T” value read?
Answer: A (T ≥8° C.)

Question: For `OCc1c(Oc2cccc(-c3nnc(Cc4ccccc4)[nH]3)c2)ccc2[nH]ccc12` [Example 20, (5-(3-(5-Benzyl-4H-1,2,4-triazol-3-yl)phenoxy)-1H-indol-4-yl)methanol], which “DSLS NBD1/3D Human Stability delta-T” value is on record?
Answer: B (4-8° C.)

Question: With `O=C(O)c1c(Oc2cccc(-c3nc(C(O)c4ccccc4)c[nH]3)c2)ccc2[nH]ccc12` (stereo not drawn) [Example 81, 5-(3-(4-(Hydroxy(phenyl)methyl)-1H-imidazol-2-yl)phenoxy)-1H-indole-4-carboxylic acid] as the compound, how does the “DSLS NBD1/3D Human Stability delta-T” value read?
Answer: B (4-8° C.)

Question: How did the “DSLS NBD1/3D Human Stability delta-T” value turn out when `OC(c1ccccc1)c1cnc(-c2cccc(Oc3ccc4[nH]ccc4n3)c2)[nH]1` (stereo not drawn) [Example 52, (2-(3-((1H-Pyrrolo[3,2-b]pyridin-5-yl)oxy)phenyl)-1H-imidazol-5-yl)(phenyl)methanol] was run?
Answer: B (4-8° C.)

Question: `CC(O)(c1ccccc1)c1nnc(-c2cccc(Oc3ccc4[nH]ccc4n3)c2)[nH]1` (stereo not drawn) [Example 16, 1-(5-(3-((1H-Pyrrolo[3,2-b]pyridin-5-yl)oxy)phenyl)-4H-1,2,4-triazol-3-yl)-1-phenylethan-1-ol] was tested. Which “DSLS NBD1/3D Human Stability delta-T” value did it give?
Answer: B (4-8° C.)

Question: Which “DSLS NBD1/3D Human Stability delta-T” value does the source give for `CC(=O)c1c(Oc2cccc(-c3nc(C(C)(O)c4ccccc4)c[nH]3)c2)c(F)cc2[nH]ccc12` (stereo not drawn) [Example 65, 1-(6-Fluoro-5-(3-(4-(1-hydroxy-1-phenylethyl)-1H-imidazol-2-yl)phenoxy)-1H-indol-4-yl)ethan-1-one] here?
Answer: A (T ≥8° C.)

Question: For `CC(C(=O)O)(c1ccccc1)c1c[nH]c(-c2cc(Oc3c(F)cc4[nH]ccc4c3F)ccc2F)n1` (stereo not drawn) [Example 76, 2-(2-(5-((4,6-Difluoro-1H-indol-5-yl)oxy)-2-fluorophenyl)-1H-imidazol-4-yl)-2-phenylpropanoic acid], which “DSLS NBD1/3D Human Stability delta-T” value is on record?
Answer: B (4-8° C.)

Question: How did the “DSLS NBD1/3D Human Stability delta-T” value turn out when `CS(=O)(=O)c1c(Oc2ccc(F)c(-c3nc(C(OCCO)c4ccccc4)c[nH]3)c2)c(F)cc2[nH]ccc12` (stereo not drawn) [Example 72, 2-((2-(2-Fluoro-5-((6-fluoro-4-(methylsulfonyl)-1H-indol-5-yl)oxy)phenyl)-1H-imidazol-4-yl)(phenyl)methoxy)ethan-1-ol] was run?
Answer: A (T ≥8° C.)

Question: With `CC(c1ccccc1)c1c[nH]c(-c2cc(Oc3c(F)cc4[nH]ccc4c3CC3SC(=O)NC3=O)ccc2F)n1` (stereo not drawn) [Example 2, 5-((6-Fluoro-5-(4-fluoro-3-(4-(1-phenylethyl)-1H-imidazol-2-yl)phenoxy)-1H-indol-4-yl)methyl)thiazolidine-2,4-dione] as the compound, how does the “DSLS NBD1/3D Human Stability delta-T” value read?
Answer: B (4-8° C.)

Question: `c1ccc(Cc2nnc(-c3cccc(Oc4ccc5[nH]cc6c5c4CNC6)c3)[nH]2)cc1` [Example 43, 6-(3-(5-Benzyl-4H-1,2,4-triazol-3-yl)phenoxy)-1,3,4,5-tetrahydropyrrolo[4,3,2-de]isoquinoline] was tested. Which “DSLS NBD1/3D Human Stability delta-T” value did it give?
Answer: C (≤4° C.)

Question: `OC(c1cccc(-c2nnc(Cc3ccccc3)[nH]2)c1)c1ccc2[nH]ccc2c1` (single isomer, unassigned) [Example 35A, (3-(5-Benzyl-4H-1,2,4-triazol-3-yl)phenyl)(1H-indol-5-yl)methanol] was tested. Which “DSLS NBD1/3D Human Stability delta-T” value did it give?
Answer: B (4-8° C.)

Question: `O=C(Cc1c(Oc2cccc(-c3nnc(Cc4ccccc4)[nH]3)c2)ccc2[nH]ccc12)NS(=O)(=O)C1CC1` [Example 12, 2-(5-(3-(5-Benzyl-4H-1,2,4-triazol-3-yl)phenoxy)-1H-indol-4-yl)-N-(cyclopropylsulfonyl)acetamide] was tested. Which “DSLS NBD1/3D Human Stability delta-T” value did it give?
Answer: A (T ≥8° C.)
